Target: purified human Factor XIa (Homo sapiens (Human), UniProt P03951)
Assay: Factor XIa Assay
Assay type: biochemical
Procedure: The effectiveness a of compound of the present invention as an inhibitor of Coagulation Factor XIa can be determined using a relevant purified serine protease, and an appropriate synthetic substrate. The rate of hydrolysis of the chromogenic or fluorogenic substrate by the relevant serine protease was measured both in the absence and presence of compounds of the present invention. Assays were conducted at room temperature or at 37° C. […] A decrease in the rate of fluorescence change in the presence of inhibitor is indicative of enzyme inhibition. Such methods are known to one skilled in the art. The results of this assay are expressed as the inhibitory constant, Ki.
Factor XIa determinations were made in 50 mM HEPES buffer at pH 7.4 containing 150 mM NaCl, 5 mM CaCl2, and 0.1% PEG 8000 (polyethylene glycol; J T Baker or Fisher Scientific). Determinations were made using purified human Factor XIa at a final concentration of 40 pM (Sekisui Diagnostics) and the synthetic substrate, Z-Gly-Pro-Arg-AFC, TFA salt (Sigma #C0980) at a concentration of 100 μM.
Activity assays were performed by diluting a stock solution of substrate at least tenfold to a final concentration ≤0.1 Km into a solution containing enzyme or enzyme equilibrated with inhibitor. Times required to achieve equilibration between enzyme and inhibitor were determined in control experiments. Initial velocities of product formation in the absence (Vo) or presence of inhibitor (Vi) were measured. Assuming competitive inhibition, and that unity is negligible compared Km/[S], [I]/e, and [I]/e (where [S], [I], and e respectively represent the total concentrations, of substrate, inhibitor and enzyme), the equilibrium constant (Ki) for dissociation of the inhibitor from the enzyme can be obtained from the dependence of Vo/Vi on [I] shown in the following equation. Vo/Vi=1+[I]/Ki

Sequence of purified human Factor XIa (P03951 whole entry, looked up): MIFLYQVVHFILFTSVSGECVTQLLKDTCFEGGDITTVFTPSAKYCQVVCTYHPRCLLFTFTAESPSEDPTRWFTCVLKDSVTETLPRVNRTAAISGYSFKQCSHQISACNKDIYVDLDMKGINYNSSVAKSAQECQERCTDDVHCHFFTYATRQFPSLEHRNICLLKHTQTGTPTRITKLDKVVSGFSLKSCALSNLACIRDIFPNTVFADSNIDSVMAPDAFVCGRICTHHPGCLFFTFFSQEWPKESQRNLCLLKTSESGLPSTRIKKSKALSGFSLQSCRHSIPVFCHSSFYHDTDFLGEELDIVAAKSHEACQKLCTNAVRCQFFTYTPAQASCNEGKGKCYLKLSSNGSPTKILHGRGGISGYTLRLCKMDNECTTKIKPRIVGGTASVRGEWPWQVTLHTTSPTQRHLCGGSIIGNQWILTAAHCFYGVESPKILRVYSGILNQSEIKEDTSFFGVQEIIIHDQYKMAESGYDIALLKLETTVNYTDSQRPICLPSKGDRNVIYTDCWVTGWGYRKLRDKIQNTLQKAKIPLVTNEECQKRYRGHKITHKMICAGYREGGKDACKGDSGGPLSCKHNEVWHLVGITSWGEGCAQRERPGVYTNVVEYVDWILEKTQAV
Sequence of purified human Factor XIa (P03951 whole entry partner, looked up): as the sequence (P03951 whole entry, looked up) above

SMILES | Ki [nM]
COC(=O)Nc1ccc2c(c1)NC(=O)CCCC[C@H](NC(=O)c1ccc(CN)c(C3CC3)c1)c1nc-2c[nH]1 [Example 1, Methyl [(7S)-7-({[4-(aminomethyl)-3-cyclopropylphenyl]carbonyl}amino)-2-oxo-1,2,3,4,5,6,7,9-octahydro-11,8-(azeno)-1,9-benzodiazacyclotridecin-14-yl]carbamate] | 0.1
COC(=O)Nc1ccc2c(c1)NC(=O)CCCC[C@H](NC(=O)c1cnc(CN)c(C3CC3)c1)c1nc-2c[nH]1 [Example 2] | 1.1
COC(=O)Nc1ccc2c(c1)N[C@@H](C(=O)O)CCCC[C@H](NC(=O)c1ccc(CN)c(C3CC3)c1)c1nc-2c[nH]1 [Example 3] | 0.1
COC(=O)Nc1ccc2c(c1)NC(=O)[C@@H](C)CCC[C@H](NC(=O)c1ccc(CN)c(C3CC3)c1)c1cc-2ccn1 [Example 4] | 0.03
COC(=O)Nc1ccc2c(c1)NC(=O)CCCC[C@H](NC(=O)c1ccc(CN)c(C3CC3)c1)c1nc-2c(Cl)[nH]1 [Example 5] | 0.05
CC(C)COC(=O)Nc1ccc2c(c1)NC(=O)[C@@H](C)CCC[C@H](NC(=O)c1ccc(CN)c(C3CC3)c1)c1cc-2ccn1 [Example 6] | 0.2
C[C@H]1CCC[C@H](NC(=O)c2ccc(CN)c(C3CC3)c2)c2cc(ccn2)-c2ccc(NC(=O)OC3CCCC3)cc2NC1=O [Example 7] | 0.3
COCCOC(=O)Nc1ccc2c(c1)NC(=O)[C@@H](C)CCC[C@H](NC(=O)c1ccc(CN)c(C3CC3)c1)c1cc-2ccn1 [Example 8] | 0.1
